Laboratory results published in ChEMBL document CHEMBL5260852, “Long-Acting Tumor-Activated Prodrug of a TGFβR Inhibitor” (J Med Chem, 2021).
Values belong to the compound of their own block, whether it stands above or below them. Numbered stars: 1 amine (or outer) side, 2 acyl side, 3 side chain; on linkers, the order of the positions; unused ones are H or OH. Square brackets hold non-standard residues; d marks the D form. Peptide text beside a SMILES is read from it. * marks the point of attachment. X1 = N#Cc1cnc2ccc(-c3c(-c4ccc(F)c(Cl)c4)ncn3CCOCN*)nn12; C18 diacid = O=C(O)CCCCCCCCCCCCCCCCC(=O)*; C16 diacid = O=C(O)CCCCCCCCCCCCCCC(=O)*; γGlu = O=C(O)[C@H](CCC(=O)[*:2])N[*:1]; PABC = O=C(OCc1ccc(N[*:1])cc1)[*:2]; Palmitoyl = CCCCCCCCCCCCCCCC(=O)*; AEEA = NCCOCCOCC(=O)O

How the values were obtained:
[1] = AUC in C57BL/6 mouse plasma at 6 mg/kg,iv and measured upto 24 hrs by LC-MS/MS analysis; type: ADME, organism-based; parameters: dose 6 mg/kg, time < 24 hrs, route iv
[2] = Prodrug conversion in tumor of C57BL/6 mouse xenografted mouse MC38 cells assessed as BMS-986260 Tmax at 8 mg/kg,iv and measured after 72 hrs by LC-MS/MS analysis; type: ADME, organism-based, Neoplasm, MC-38; conditions: in vivo
[3] = Prodrug conversion in blood of C57BL/6 mouse xenografted mouse MC38 cells assessed as BMS-986260 ratio of AUC in tumor to blood at 8 mg/kg,iv and measured after 72 hrs by LC-MS/MS analysis; type: ADME, organism-based, MC-38; conditions: tumour
[4] = Prodrug conversion in blood of C57BL/6 mouse xenografted mouse MC38 cells assessed as BMS-986260 Cmax at 8 mg/kg,iv and measured after 72 hrs by LC-MS/MS analysis; type: ADME, organism-based, MC-38; parameters: dose 8 mg/kg, time 72 hrs, route iv; conditions: in vivo
[5] = Prodrug conversion in heart of C57BL/6 mouse xenografted mouse MC38 cells assessed as BMS-986260 AUC (0 to 72 hrs) at 8 mg/kg,iv and measured after 72 hrs by LC-MS/MS analysis; type: ADME, organism-based, MC-38; parameters: time 72 hrs, dose 8 mg/kg, route iv; conditions: in vivo
[6] = Prodrug conversion in blood of C57BL/6 mouse xenografted mouse MC38 cells assessed as BMS-986260 Tmax at 8 mg/kg,iv and measured after 72 hrs by LC-MS/MS analysis; type: ADME, organism-based, MC-38; conditions: in vivo
[7] = Prodrug conversion in blood of C57BL/6 mouse xenografted mouse MC38 cells assessed as BMS-986260 ratio of AUC in tumor to heart at 8 mg/kg,iv and measured after 72 hrs by LC-MS/MS analysis; type: ADME, organism-based, MC-38; conditions: in vivo
[8] = Prodrug conversion in tumor of C57BL/6 mouse xenografted mouse MC38 cells assessed as BMS-986260 Cmax at 8 mg/kg,iv and measured after 72 hrs by LC-MS/MS analysis; type: ADME, organism-based, Neoplasm, MC-38; parameters: dose 8 mg/kg, time 72 hrs, route iv; conditions: in vivo
[9] = Prodrug conversion in C57BL/6 mouse xenografted mouse MC38 cells assessed as BMS-986260 ratio of AUC in heart to blood at 8 mg/kg,iv and measured after 72 hrs by LC-MS/MS analysis; type: ADME, organism-based, MC-38; conditions: other tissue
[10] = Stability in rat plasma assessed as parent compound remaining after 24 hrs by HPLC-MS analysis; type: ADME, cell-free; conditions: read-out: Stability
[11] = Prodrug conversion in tumor of C57BL/6 mouse xenografted mouse MC38 cells assessed as BMS-986260 AUC (0 to 72 hrs) at 8 mg/kg,iv and measured after 72 hrs by LC-MS/MS analysis; type: ADME, organism-based, Neoplasm, MC-38; parameters: time 72 hrs, dose 8 mg/kg, route iv; conditions: in vivo
[12] = Drug concentration in C57BL/6 mouse plasma at 6 mg/kg,iv and measured after 24 hrs by LC-MS/MS analysis; type: ADME, organism-based
[13] = Prodrug conversion in heart of C57BL/6 mouse xenografted mouse MC38 cells assessed as BMS-986260 Cmax at 8 mg/kg,iv and measured after 72 hrs by LC-MS/MS analysis; type: ADME, organism-based, MC-38; parameters: dose 8 mg/kg, time 72 hrs, route iv; conditions: in vivo
[14] = Stability in mouse plasma assessed as parent compound remaining after 24 hrs by HPLC-MS analysis; type: ADME, cell-free; conditions: read-out: Stability
[15] = Prodrug conversion in blood of C57BL/6 mouse xenografted mouse MC38 cells assessed as BMS-986260 AUC (0 to 72 hrs) at 8 mg/kg,iv and measured after 72 hrs by LC-MS/MS analysis; type: ADME, organism-based, MC-38; parameters: time 72 hrs, dose 8 mg/kg, route iv; conditions: in vivo
[16] = Prodrug conversion in heart of C57BL/6 mouse xenografted mouse MC38 cells assessed as BMS-986260 Tmax at 8 mg/kg,iv and measured after 72 hrs by LC-MS/MS analysis; type: ADME, organism-based, MC-38; conditions: in vivo
[17] = Prodrug conversion in tumor of C57BL/6 mouse xenografted mouse MC38 cells assessed as BMS-986260 Tmax at 8 mg/kg,iv and measured after 48 hrs by LC-MS/MS analysis; type: ADME, organism-based, Neoplasm, MC-38; conditions: in vivo
[18] = Prodrug conversion in tumor of C57BL/6 mouse xenografted mouse MC38 cells assessed as BMS-986260 Cmax at 8 mg/kg,iv and measured after 48 hrs by LC-MS/MS analysis; type: ADME, organism-based, Neoplasm, MC-38; parameters: dose 8 mg/kg, time 48 hrs, route iv; conditions: in vivo
[19] = Prodrug conversion in tumor of C57BL/6 mouse xenografted mouse MC38 cells assessed as BMS-986260 AUC (0 to 48 hrs) at 8 mg/kg,iv and measured after 48 hrs by LC-MS/MS analysis; type: ADME, organism-based, Neoplasm, MC-38; parameters: dose 8 mg/kg, time 48 hrs, route iv; conditions: in vivo
[20] = Prodrug conversion in heart of C57BL/6 mouse xenografted mouse MC38 cells assessed as BMS-986260 Tmax at 8 mg/kg,iv and measured after 48 hrs by LC-MS/MS analysis; type: ADME, organism-based, MC-38; conditions: in vivo
[21] = Prodrug conversion in blood of C57BL/6 mouse xenografted mouse MC38 cells assessed as BMS-986260 AUC (0 to 48 hrs) at 8 mg/kg,iv and measured after 48 hrs by LC-MS/MS analysis; type: ADME, organism-based, MC-38; parameters: dose 8 mg/kg, time 48 hrs, route iv; conditions: in vivo
[22] = Prodrug conversion in heart of C57BL/6 mouse xenografted mouse MC38 cells assessed as BMS-986260 Cmax at 8 mg/kg,iv and measured after 48 hrs by LC-MS/MS analysis; type: ADME, organism-based, MC-38; parameters: time 48 hrs, dose 8 mg/kg, route iv; conditions: in vivo
[23] = Prodrug conversion in blood of C57BL/6 mouse xenografted mouse MC38 cells assessed as BMS-986260 Cmax at 8 mg/kg,iv and measured after 48 hrs by LC-MS/MS analysis; type: ADME, organism-based, MC-38; parameters: time 48 hrs, dose 8 mg/kg, route iv; conditions: in vivo
[24] = Prodrug conversion in heart of C57BL/6 mouse xenografted mouse MC38 cells assessed as BMS-986260 AUC (0 to 48 hrs) at 8 mg/kg,iv and measured after 48 hrs by LC-MS/MS analysis; type: ADME, organism-based, MC-38; parameters: time 48 hrs, dose 8 mg/kg, route iv; conditions: in vivo
[25] = Prodrug conversion in C57BL/6 mouse xenografted mouse MC38 cells assessed as BMS-986260 ratio of AUC in tumor to blood at 8 mg/kg,iv and measured after 48 hrs by LC-MS/MS analysis; type: ADME, organism-based, MC-38; conditions: tumour
[26] = Prodrug conversion in C57BL/6 mouse xenografted mouse MC38 cells assessed as BMS-986260 ratio of AUC in heart to blood at 8 mg/kg,iv and measured after 48 hrs by LC-MS/MS analysis; type: ADME, organism-based, MC-38; conditions: other tissue
[27] = Prodrug conversion in blood of C57BL/6 mouse xenografted mouse MC38 cells assessed as BMS-986260 Tmax at 8 mg/kg,iv and measured after 48 hrs by LC-MS/MS analysis; type: ADME, organism-based, MC-38; conditions: in vivo
[28] = Prodrug conversion in C57BL/6 mouse xenografted mouse MC38 cells assessed as BMS-986260 ratio of AUC in tumor to heart at 8 mg/kg,iv and measured after 48 hrs by LC-MS/MS analysis; type: ADME, organism-based, MC-38; conditions: in vivo

AUC at 24 h [1]: 40.9 µM·h
SMILES: CCCCCCCCCCCCCCCC(=O)N[C@@H](CCC(=O)N[C@@H](CC(C)C)C(=O)N[C@@H](CO)C(=O)NCC(=O)N[C@@H](CCCCN)C(=O)Nc1ccc(COC(=O)NCOCCn2cnc(-c3ccc(F)c(Cl)c3)c2-c2ccc3ncc(C#N)n3n2)cc1)C(=O)O ({Palmitoyl-γGlu}-LSGK[PABC]-X1)

Tmax [2]: 8 h
Ratio AUC [3]: 2.8
Cmax [4]: 140 nM
AUC [5]: 8.4 µM·h
Tmax [6]: 1 h
Ratio AUC [7]: 1.6
Cmax [8]: 310 nM
Ratio AUC [9]: 1.8
remaining at 24 h [10]: 93%
AUC [11]: 13 µM·h
concentration at 24 h [12]: 5200 nM
Cmax [13]: 270 nM
remaining at 24 h [14]: 96%
AUC [15]: 4.6 µM·h
AUC at 24 h [1]: 270 µM·h
Tmax [16]: 8 h
SMILES: CC(C)C[C@H](NC(=O)COCCOCCNC(=O)COCCOCCNC(=O)CC[C@H](NC(=O)CC[C@H](NC(=O)CC[C@H](NC(=O)CCCCCCCCCCCCCCCCC(=O)O)C(=O)O)C(=O)O)C(=O)O)C(=O)N[C@@H](CO)C(=O)NCC(=O)N[C@@H](CCCCN)C(=O)Nc1ccc(COC(=O)NCOCCn2cnc(-c3ccc(F)c(Cl)c3)c2-c2ccc3ncc(C#N)n3n2)cc1 ({C18 diacid-γGlu-γGlu-γGlu-AEEA-AEEA}-LSGK[PABC]-X1)

remaining at 24 h [14]: 6%
SMILES: CC(=O)N[C@@H](CC(C)C)C(=O)N[C@@H](CO)C(=O)NCC(=O)N[C@@H](CCCCN)C(=O)Nc1ccc(COC(=O)NCOCCn2cnc(-c3ccc(F)c(Cl)c3)c2-c2ccc3ncc(C#N)n3n2)cc1 (Ac-LSGK[PABC]-X1)

Tmax [17]: 1 h
Cmax [18]: 470 nM
AUC [19]: 6.6 µM·h
Tmax [20]: 8 h
AUC [21]: 3 µM·h
Cmax [22]: 300 nM
remaining at 24 h [10]: 84%
Cmax [23]: 160 nM
AUC [24]: 5.4 µM·h
concentration at 24 h [12]: > 1000 nM
Ratio AUC [25]: 2.2
Ratio AUC [26]: 1.8
Tmax [27]: 4 h
remaining at 24 h [14]: 79%
AUC at 24 h [1]: 348 µM·h
Ratio AUC [28]: 1.2
SMILES: CC(C)C[C@H](NC(=O)COCCOCCNC(=O)COCCOCCNC(=O)CC[C@H](NC(=O)CCCCCCCCCCCCCCCCC(=O)O)C(=O)O)C(=O)N[C@@H](CO)C(=O)NCC(=O)N[C@@H](CCCCN)C(=O)Nc1ccc(COC(=O)NCOCCn2cnc(-c3ccc(F)c(Cl)c3)c2-c2ccc3ncc(C#N)n3n2)cc1 ({C18 diacid-γGlu-AEEA-AEEA}-LSGK[PABC]-X1)

remaining at 24 h [14]: 54%
SMILES: CC(C)C[C@H](NC(=O)COCCOCCNC(=O)COCCOCCNC(=O)CC[C@H](NC(=O)CCCCCCCCCCCCCCC(=O)O)C(=O)O)C(=O)N[C@@H](CO)C(=O)NCC(=O)N[C@@H](CCCCN)C(=O)Nc1ccc(COC(=O)NCOCCn2cnc(-c3ccc(F)c(Cl)c3)c2-c2ccc3ncc(C#N)n3n2)cc1 ({C16 diacid-γGlu-AEEA-AEEA}-LSGK[PABC]-X1)
